Literature values as cited in patent US9877930B2, “Topical ubiquinol oral supplement compositions with amorphous calcium phosphate” (Premier Dental Products Company, priority 2012, dated 2018).

Experiments:
adult periodontitis = settings: topical once weekly via syringe for six weeks, with mechanical debridement; sites that bled at day 0
[1] = 150 mg per day in a softgel, orally, within 28 days
[2] = tested on: human monocytic celline THP-1; settings: LPS-stimulated THP-1
[3] = not given; remark: listed apart in the source
periodontal disease = settings: 150 mg capsule/day for two months

| Compound | bleeding on probing at treated sites (adult periodontitis) | water solubility | peak blood values [1] | effect on inflammatory cytokines and chemokines in vitro [2] | time required to reach peak concentration ([3]; absorption from the gastrointestinal tract) | time to steady-state concentrations ([3]; oral treatment) | effect on oral environment for periodontal disease (periodontal disease) |
| --- | --- | --- | --- | --- | --- | --- | --- |
| COC1=C(OC)C(=O)C(C/C=C(\C)CC/C=C(\C)CC/C=C(\C)CC/C=C(\C)CC/C=C(\C)CC/C=C(\C)CC/C=C(\C)CC/C=C(\C)CC/C=C(\C)CCC=C(C)C)=C(C)C1=O [CoQ10, ubiquinone] | no bleeding at six weeks | – | – | – | – | – | – |
| COc1c(O)c(C)c(C/C=C(\C)CC/C=C(\C)CC/C=C(\C)CC/C=C(\C)CC/C=C(\C)CC/C=C(\C)CC/C=C(\C)CC/C=C(\C)CC/C=C(\C)CCC=C(C)C)c(O)c1OC [UBIQUINOL] | – | less than 0.1 mg/ml | 3.84 µg/mL | anti-inflammatory effects | approximately 6 hours | within two weeks | effective in improving oral environment for periodontal disease |
